Among the data in patent US6949574B2 (Bristol-Myers Squibb Company, priority 2002, dated 2005) are IC50 values, retold here.

A word on the IC50: it is the midpoint of a concentration-inhibition curve.

One assay concerns the target T1, human FAAH (Homo sapiens, UniProt O00519).
T1 construct: expressed in transfected cells; host or cells: H4 cells (H4-FAAH, Geneticin-selected); crude membrane homogenates
T1 sequence (O00519 1-579): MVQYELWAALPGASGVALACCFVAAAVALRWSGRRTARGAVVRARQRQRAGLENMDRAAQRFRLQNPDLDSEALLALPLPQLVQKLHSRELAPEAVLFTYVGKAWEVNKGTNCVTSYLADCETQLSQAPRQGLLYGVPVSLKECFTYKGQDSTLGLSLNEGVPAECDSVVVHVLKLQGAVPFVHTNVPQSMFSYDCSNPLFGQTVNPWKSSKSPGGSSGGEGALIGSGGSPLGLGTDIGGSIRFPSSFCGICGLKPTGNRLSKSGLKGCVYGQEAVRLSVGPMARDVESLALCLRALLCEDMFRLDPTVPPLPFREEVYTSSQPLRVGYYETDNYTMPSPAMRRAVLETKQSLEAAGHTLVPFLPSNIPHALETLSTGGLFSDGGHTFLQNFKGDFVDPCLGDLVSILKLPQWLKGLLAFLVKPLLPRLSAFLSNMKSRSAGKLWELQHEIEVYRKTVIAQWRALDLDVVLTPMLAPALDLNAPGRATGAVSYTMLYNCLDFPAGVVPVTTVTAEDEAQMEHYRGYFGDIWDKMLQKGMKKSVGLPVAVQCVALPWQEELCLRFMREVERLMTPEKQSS
Nature of the assay: FAAH activity in membrane homogenates of H4-FAAH cells, [3H]-anandamide hydrolysis. It is filed as biochemical.
Conditions: not given
How it is done:
Homogenates of crude membranes were prepared from H4 cells that express transfected human FAAH (H4-FAAH cells). Briefly, cells were grown in DMEM supplemented with 10% FBS and Geneticin at a final concentration of 500 μg/ml (Gibco BRL, Rockville, Md.). Confluent cultures of H4-FAAH cells were rinsed twice with phosphate-buffered saline [138 mM NaCl, 4.1 mM KCl, 5.1 mM Na2PO4, 1.5 mM KH2PO4 (pH 7.5), 37° C.] and incubated for 5 to 10 minutes at 4° C. in lysis buffer [1 mM sodium bicarbonate]. Cells were transferred from plates to polypropylene tubes (16×100 mm), homogenized and centrifuged at 32,000×g for 30 minutes. Pellets were resuspended by homogenization in lysis buffer and centrifuged at 32,000×g for 30 minutes. Pellets were resuspended in lysis buffer (15-20 μg protein/ml) then stored at −80° C. until needed. On the day of an experiment, membranes were diluted to 2.67 μg protein/ml in 125 mM Tris-Cl, pH 9.0.
Activity of FAAH was measured using a modification of the method described by Omeir et al., 1995 (Life Sci 56:1999, 1995). Membrane homogenates (240 ng protein) were incubated at room temperature for one hour with 1.67 nM anandamide [ethanolamine 1-^3H] (available from American Radiolabeled Chemical Inc., St Louis, Mo.) and 10 μM anandamide (available from Sigma/RBI, St. Louis, Mo.) in the absence and presence of inhibitors. The reaction was stopped by the addition of 1 volume of a solution of 1:1 methanol and dichloroethane. The mixture was shaken and then centrifuged at 1000×g for 15 minutes to separate the aqueous and organic phases. An aliquot of the aqueous phase, containing [^3H]-ethanolamine was withdrawn and counted by scintillation spectroscopy. Data were expressed as the percentage of [^3H]-ethanolamine formed versus vehicle, after subtraction of the background radioactivity determined in the presence of 10 μM arachidonyl trifluoromethyl ketone (ATFMK), an inhibitor of FAAH. IC50 values were determined using a four-parameter logistic equation for dose-response curves.
Regarding `CCCCCOc1ccc(NC(=O)O/N=C/c2ccccc2)cc1` [Example 11, Benzaldehyde, O-[[(4-pentyloxyphenyl)amino]carbonyl]oxime], the IC50 is under 10 nM.

The compound `CCCCCCCCCCCOc1ccc(NC(=O)Oc2ccccc2F)cc1` [Example 104, 4-Undecyloxyphenylcarbamic acid, 2-fluorophenyl ester] came in with a concentration for half-maximal inhibition (IC50) of 10 to 100 nM.

Staying with this assay, now noted: H4-FAAH cell membranes, 10 μM anandamide, room temperature, one hour; read-out: IC50.
In the case of `CCc1ccc(-c2ccc(NC(=O)O/N=C/c3cccnc3)cc2)cc1` [Example 70, 3-Pyridinecarboxaldehyde, O-[[(4′-ethyl-[1,1′-biphenyl]-4-yl)amino]carbonyl]oxime], the IC50 is 10 to 100 nM.

With `CCCCOc1ccc(NC(=O)O/N=C/c2ccccc2)cc1OC` [Example 19, Benzaldehyde, O-[[(4-butoxy-3-methoxyphenyl)amino]carbonyl]oxime], the IC50 was 101 to 500 nM.

On to `CCCCOc1ccc(CNC(=O)Oc2ccc(C(C)C)cc2)cc1` [Example 117, 4-(Butoxyphenylmethyl)carbamic acid, 4-(1-methylethyl)phenyl ester], for which the half-maximal inhibitory concentration (IC50) is 10 to 100 nM.

In the case of `CCCCCCCCOc1ccc(NC(=O)Oc2ccccc2F)cc1` [Example 99, 4-Octyloxyphenylcarbamic acid, 2-fluorophenyl ester], the IC50 lay within 10 to 100 nM.

For `CCCCCCCCCCOc1ccc(NC(=O)O/N=C/c2cccnc2)cc1` [Example 35, 3-Pyridinecarboxaldehyde, O-[[(4-decyloxyphenyl)amino]carbonyl]oxime], the IC50 is under 10 nM.

For the compound `CCCCCCOc1ccc(NC(=O)Oc2ccccc2)cc1` [Example 93, 4-Hexyloxyphenylcarbamic acid, phenyl ester], the IC50 lay within 10 to 100 nM.

Turning to `O=C(Nc1ccc2oc3ccccc3c2c1)O/N=C/c1cccnc1` [Example 152, 3-Pyridinecarboxaldehyde, O-[[(2-dibenzofuranyl)amino]carbonyl]oxime], the IC50 was in the range of 101 to 500 nM.

Take `CCCCOc1ccc(NC(=O)OC)cc1` [Example 95, 4-Butoxyphenylcarbamic acid, methyl ester]: the IC50 was over 500 nM.

With `CCCCCCCCOc1ccc(NC(=O)O/N=C/c2cccnc2)cc1` [Example 30, 3-Pyridinecarboxaldehyde, O-[[(4-octyloxyphenyl)amino]carbonyl]oxime], the IC50 was under 10 nM.

Turning to `CCCCCCCCCCCCOc1ccc(NC(=O)O/N=C/c2ccccc2)cc1` [Example 41, Benzaldehyde, O-[[(4-dodecyloxyphenyl)amino]carbonyl]oxime], the IC50 is under 10 nM.

Consider `CCCCOc1ccc(CNC(=O)Oc2ccc(F)cc2F)cc1` [Example 120, 4-(Butoxyphenylmethyl)carbamic acid, 2,4-difluorophenyl ester], for which the IC50 was under 10 nM.

For the compound `CCCCCCCCCCOc1ccc(NC(=O)O/N=C/c2ccccc2)cc1` [Example 33, Benzaldehyde, O-[[(4-decyloxyphenyl)amino]carbonyl]oxime], the IC50 was under 10 nM.

Regarding `O=C(Nc1c[nH]c2ccccc12)O/N=C/c1ccc(F)cc1` [Example 144, 4-Fluorobenzaldehyde, O-[[(1H-indol-3-yl)amino]carbonyl]oxime], the IC50 was over 500 nM.

In the case of `CCCOc1ccc(NC(=O)O/N=C/c2ccc(F)cc2)cc1` [Example 13, 4-Fluorobenzaldehyde, O-[[(4-propoxyphenyl)amino]carbonyl]oxime], the IC50 fell in the range of 10 to 100 nM.

Regarding `CCCCCCCCCCCOc1ccc(NC(=O)ON=C(C)C)cc1` [Example 36, 2-Propanone, O-[[(4-undecyloxyphenyl)amino]carbonyl]oxime], the half-maximal inhibitory concentration (IC50) is under 10 nM.

Regarding `O=C(Nc1ccc(Oc2cccnc2)cc1)O/N=C/c1ccc(F)cc1` [Example 150, 4-Fluorobenzaldehyde, O-[[[4-[(3-pyridinyl)oxy]phenyl]amino]carbonyl]oxime], the IC50 is under 10 nM.

Consider `CCCCOc1ccc(C(CC)NC(=O)Oc2ccc3ccccc3c2)cc1` (stereo not shown) [Example 128, [1-(4-Butoxy-phenyl)-propyl]-carbamic acid naphthalen-2-yl ester], for which the half-inhibitory concentration (IC50) lay in the range of 10 to 100 nM.
